Test results taken from US20230257396A1, “MACROCYCLES AND THEIR USE” (BLOSSOMHILL THERAPEUTICS, INC., priority 2020, published 2023).
Substitutions are numbered along the chain they refer to.

Tests used:
Assay in all cases: KINOMEscan kinase binding assay (Eurofins/DiscoveRx), % Ctrl
kinases [1] = target: T1, kinases (Homo sapiens, UniProt P00519, F317L)
T1 construct: purchased Eurofins/DiscoveRx; host or cells: E. coli BL21-derived host (T7 phage display) for most kinases; HEK-293 for the rest
In short: (§1)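 Competition binding: DNA- or phage-tagged kinases (T7 phage in E. coli BL21, or HEK-293-expressed) with immobilized biotinylated ligand beads and test compound, 1 h at room temperature. Bead-bound kinase eluted and quantified by qPCR; % Ctrl = (compound − positive control)/(negative control − positive control) ×100 at a single compound concentration.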

kinases [2] = target: T2, kinases (Homo sapiens, UniProt P36888, R834Q)
T2 construct: purchased Eurofins/DiscoveRx; host or cells: E. coli BL21-derived host (T7 phage display) for most kinases; HEK-293 for the rest
T2 sequence (P36888 27-993 R834Q): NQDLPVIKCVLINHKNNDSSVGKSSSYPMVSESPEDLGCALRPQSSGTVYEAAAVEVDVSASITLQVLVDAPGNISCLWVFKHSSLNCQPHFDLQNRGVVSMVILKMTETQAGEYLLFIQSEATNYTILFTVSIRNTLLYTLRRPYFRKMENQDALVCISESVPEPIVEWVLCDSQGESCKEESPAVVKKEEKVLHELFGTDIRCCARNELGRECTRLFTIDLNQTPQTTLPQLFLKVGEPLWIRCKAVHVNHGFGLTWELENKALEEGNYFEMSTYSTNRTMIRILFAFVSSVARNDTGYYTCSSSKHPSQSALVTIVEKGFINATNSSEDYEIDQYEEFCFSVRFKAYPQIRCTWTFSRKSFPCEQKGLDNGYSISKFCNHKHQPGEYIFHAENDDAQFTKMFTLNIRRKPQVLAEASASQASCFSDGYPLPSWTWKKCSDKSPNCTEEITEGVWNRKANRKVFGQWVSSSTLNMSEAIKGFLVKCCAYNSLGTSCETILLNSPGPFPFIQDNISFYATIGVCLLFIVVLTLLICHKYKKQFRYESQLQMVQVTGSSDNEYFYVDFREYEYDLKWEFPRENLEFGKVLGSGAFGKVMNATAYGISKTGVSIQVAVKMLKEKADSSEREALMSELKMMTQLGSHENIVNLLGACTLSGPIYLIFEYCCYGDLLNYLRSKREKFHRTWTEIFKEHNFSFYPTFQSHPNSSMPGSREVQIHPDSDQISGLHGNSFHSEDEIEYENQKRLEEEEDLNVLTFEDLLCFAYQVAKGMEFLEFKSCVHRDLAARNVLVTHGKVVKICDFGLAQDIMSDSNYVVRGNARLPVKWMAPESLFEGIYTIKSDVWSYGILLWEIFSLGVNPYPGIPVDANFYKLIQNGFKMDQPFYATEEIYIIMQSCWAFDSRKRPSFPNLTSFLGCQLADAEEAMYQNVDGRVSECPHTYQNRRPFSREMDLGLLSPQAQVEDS
In short: as §1

kinases [3] = target: T3, kinases (Homo sapiens, UniProt P10721, T670I/V559D)
T3 construct: purchased Eurofins/DiscoveRx; host or cells: E. coli BL21-derived host (T7 phage display) for most kinases; HEK-293 for the rest
In short: as §1

kinases [4] = target: T4, kinases (Homo sapiens, UniProt P10721, L576P)
T4 construct: purchased Eurofins/DiscoveRx; host or cells: E. coli BL21-derived host (T7 phage display) for most kinases; HEK-293 for the rest
In short: as §1

kinases [5] = target: T5, kinases (Homo sapiens, UniProt P36888, K663Q)
T5 construct: purchased Eurofins/DiscoveRx; host or cells: E. coli BL21-derived host (T7 phage display) for most kinases; HEK-293 for the rest
T5 sequence (P36888 27-993 K663Q): T2 sequence (P36888 27-993 R834Q) with K637Q, Q808R
In short: as §1

[6] = 1 μM; ABL1(F317L)-nonphosphorylated
[7] = 1 μM; ABL1(F317L)-phosphorylated

T4 sequence (P10721 26-976 L576P): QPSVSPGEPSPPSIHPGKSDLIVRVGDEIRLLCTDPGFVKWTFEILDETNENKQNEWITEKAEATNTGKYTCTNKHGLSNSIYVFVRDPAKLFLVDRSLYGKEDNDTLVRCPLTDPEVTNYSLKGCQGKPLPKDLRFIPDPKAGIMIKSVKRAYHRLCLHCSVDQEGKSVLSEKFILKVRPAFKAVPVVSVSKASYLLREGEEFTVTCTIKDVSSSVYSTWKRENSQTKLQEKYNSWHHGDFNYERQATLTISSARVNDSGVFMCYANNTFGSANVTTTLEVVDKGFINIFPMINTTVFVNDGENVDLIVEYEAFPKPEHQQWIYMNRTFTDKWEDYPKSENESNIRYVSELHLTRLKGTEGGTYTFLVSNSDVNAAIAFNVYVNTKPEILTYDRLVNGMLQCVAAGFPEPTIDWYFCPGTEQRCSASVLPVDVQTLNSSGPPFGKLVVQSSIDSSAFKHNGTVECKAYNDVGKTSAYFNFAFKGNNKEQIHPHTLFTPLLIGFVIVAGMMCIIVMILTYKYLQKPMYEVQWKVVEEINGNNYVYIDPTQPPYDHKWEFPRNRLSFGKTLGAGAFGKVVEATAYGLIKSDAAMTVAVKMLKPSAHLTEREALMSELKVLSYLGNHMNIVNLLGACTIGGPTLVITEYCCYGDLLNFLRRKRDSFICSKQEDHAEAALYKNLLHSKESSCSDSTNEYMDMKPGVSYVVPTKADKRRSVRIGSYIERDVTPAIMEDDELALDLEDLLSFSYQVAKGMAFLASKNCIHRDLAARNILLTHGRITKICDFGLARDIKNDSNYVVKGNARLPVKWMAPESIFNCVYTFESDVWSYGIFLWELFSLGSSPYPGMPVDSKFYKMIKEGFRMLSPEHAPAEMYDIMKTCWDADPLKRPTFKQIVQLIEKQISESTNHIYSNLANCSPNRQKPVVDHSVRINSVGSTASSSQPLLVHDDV
T3 sequence (P10721 26-976 V559D/T670I): as the sequence (P10721 26-976 L576P) above, with V534D, P551L, T645I counted along it
T1 sequence (P00519 whole entry F317L): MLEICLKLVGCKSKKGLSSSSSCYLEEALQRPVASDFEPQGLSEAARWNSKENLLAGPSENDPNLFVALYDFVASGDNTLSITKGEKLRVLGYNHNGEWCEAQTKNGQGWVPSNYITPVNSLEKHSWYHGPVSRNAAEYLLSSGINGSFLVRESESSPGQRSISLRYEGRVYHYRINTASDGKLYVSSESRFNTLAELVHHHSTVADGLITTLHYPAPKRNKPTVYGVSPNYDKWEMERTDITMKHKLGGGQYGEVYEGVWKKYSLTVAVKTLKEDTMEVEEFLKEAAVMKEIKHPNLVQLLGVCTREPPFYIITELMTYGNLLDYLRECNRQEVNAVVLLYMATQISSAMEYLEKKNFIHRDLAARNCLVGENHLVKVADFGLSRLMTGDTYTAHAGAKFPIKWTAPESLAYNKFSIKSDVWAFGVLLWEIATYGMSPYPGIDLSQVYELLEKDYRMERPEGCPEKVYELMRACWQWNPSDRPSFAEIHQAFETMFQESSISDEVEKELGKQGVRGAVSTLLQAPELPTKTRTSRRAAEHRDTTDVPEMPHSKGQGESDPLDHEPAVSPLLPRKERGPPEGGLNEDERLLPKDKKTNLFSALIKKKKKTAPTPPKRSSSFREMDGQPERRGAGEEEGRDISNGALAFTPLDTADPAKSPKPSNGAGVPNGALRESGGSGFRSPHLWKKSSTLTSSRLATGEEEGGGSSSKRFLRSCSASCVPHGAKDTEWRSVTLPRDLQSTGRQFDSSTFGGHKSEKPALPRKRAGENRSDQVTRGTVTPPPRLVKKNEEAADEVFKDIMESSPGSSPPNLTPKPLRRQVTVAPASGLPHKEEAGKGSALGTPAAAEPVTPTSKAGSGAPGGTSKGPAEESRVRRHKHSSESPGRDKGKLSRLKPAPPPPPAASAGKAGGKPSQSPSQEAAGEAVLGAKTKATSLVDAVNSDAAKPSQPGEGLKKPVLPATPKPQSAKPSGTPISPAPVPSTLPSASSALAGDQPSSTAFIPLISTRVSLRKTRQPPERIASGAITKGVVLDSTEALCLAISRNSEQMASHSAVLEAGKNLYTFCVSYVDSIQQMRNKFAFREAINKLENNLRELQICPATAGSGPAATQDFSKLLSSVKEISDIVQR

SMILES	% Ctrl, ABL1(F317L)-nonphosphorylated (kinases [1]; [6])	% Ctrl, ABL1(F317L)-phosphorylated (kinases [1]; [7])	% Ctrl, FLT3(R834Q) (kinases [2]; 1 μM; FLT3(R834Q))	% Ctrl, KIT(V559D, T670I) (kinases [3]; 1 μM; KIT(V559D, T670I))	% Ctrl, KIT(L576P) (kinases [4]; 1 μM; KIT(L576P))	% Ctrl, FLT3(K663Q) (kinases [5]; 1 μM; FLT3(K663Q))	also measured
Cc1cc2c([nH]1)/C=C1\C(=O)Nc3ccc(cc31)-c1ccnn1CCNCCNC2=O [Ex. 43, [19a(20)Z]-2-methyl-5,6,7,8,9,10-hexahydro-15,17-(ethanediylidene)pyrazolo[1,5-g]dipyrrolo[3,4-k:2′,3′-n][1,4,7]triazacyclohexadecine-4,19(1H,18H)-dione]	63 % Ctrl	90 % Ctrl	85 % Ctrl	92 % Ctrl	100 % Ctrl	72 % Ctrl	–
Cc1cc2c([nH]1)/C=C1\C(=O)Nc3cc(Cl)c(cc31)OCCO[C@@H](C(=O)N1CCN(C)CC1)CN(C)C2=O [Ex. 138, [7R,16a(17)Z]-19-chloro-2,5-dimethyl-7-(4-methylpipearazine-1-carbonyl)-6,7,9,10-tetrahydro-1H-12,14-(ethanediylidene)dipyrrolo[3,2-i:3′,4′-l][1,4,7]dioxazacyclopentadecine-4,16(5H,15H)-dione]	–	–	–	–	–	–	% Ctrl, ABL1(F317L)-nonphosphorylated (kinases [1]; target ABL1(F317L)-nonphosphorylated; 1 μM): 69 % Ctrl; % Ctrl, ABL1(F317L)-phosphorylated (kinases [1]; target ABL1(F317L)-phosphorylated; 1 μM): 75 % Ctrl; % Ctrl, FLT3(R834Q) (kinases [2]; target FLT3(R834Q); 1 μM): 99 % Ctrl; % Ctrl, KIT(V559D, T670I) (kinases [3]; target KIT(V559D, T670I); 1 μM): 73 % Ctrl; % Ctrl, KIT(L576P) (kinases [4]; target KIT(L576P); 1 μM): 69 % Ctrl; % Ctrl, FLT3(K663Q) (kinases [5]; target FLT3(K663Q); 1 μM): 95 % Ctrl
Cc1cc2c([nH]1)/C=C1\C(=O)Nc3ccc(cc31)-c1cnn(C)c1OCCCN(C)C2=O [Ex. 166, [3a(4)Z]-9,14-dimethyl-9,10,11,12-tetrahydro-14H-1,17-(ethanediylidene)pyrazolo[4,3-n]dipyrrolo[3,2-g:3′,4′-j][1,5]oxazacyclopentadecine-3,8(2H,5H)-dione]	–	–	–	–	–	–	% Ctrl, ABL1(F317L)-nonphosphorylated (kinases [1]; 1 μM; target ABL1(F317L)-nonphosphorylated): 41 % Ctrl; % Ctrl, ABL1(F317L)-phosphorylated (kinases [1]; 1 μM; target ABL1(F317L)-phosphorylated): 8.7 % Ctrl; % Ctrl, FLT3(R834Q) (kinases [2]; 1 μM; target FLT3(R834Q)): 2.1 % Ctrl; % Ctrl, KIT(V559D, T670I) (kinases [3]; 1 μM; target KIT(V559D, T670I)): 65 % Ctrl; % Ctrl, KIT(L576P) (kinases [4]; 1 μM; target KIT(L576P)): 34 % Ctrl; % Ctrl, FLT3(K663Q) (kinases [5]; 1 μM; target FLT3(K663Q)): 1.7 % Ctrl
Cc1cc2c([nH]1)/C=C1\C(=O)Nc3ccc(cc31)-c1cnn(C)c1CNCCN(C)C2=O [Ex. 125, [3a(4)Z]-6,9,14-trimethyl-9,10,11,12,13,14-hexahydro-1,17-(ethanediylidene)pyrazolo[4,3-m]dipyrrolo[3,2-f:3′,4′-i][1,4]diazacyclopentadecine-3,8(2H,5H)-dione]	0 % Ctrl	0.55 % Ctrl	0.3 % Ctrl	27 % Ctrl	5.9 % Ctrl	1.4 % Ctrl	–

Second part, led by results:

% Ctrl, ABL1(F317L)-nonphosphorylated (kinases [1]; [6])	% Ctrl, ABL1(F317L)-phosphorylated (kinases [1]; [7])	% Ctrl, FLT3(R834Q) (kinases [2]; 1 μM; FLT3(R834Q))	% Ctrl, KIT(V559D, T670I) (kinases [3]; 1 μM; KIT(V559D, T670I))	% Ctrl, KIT(L576P) (kinases [4]; 1 μM; KIT(L576P))	% Ctrl, FLT3(K663Q) (kinases [5]; 1 μM; FLT3(K663Q))	SMILES	also measured
0 % Ctrl	1.3 % Ctrl	6.6 % Ctrl	0.05 % Ctrl	0 % Ctrl	7.4 % Ctrl	Cc1cc2c([nH]1)/C=C1\C(=O)Nc3cc(Cl)c(cc31)OCCOCCN(C)C2=O [Ex. 131, [16a(17)Z]-19-chloro-2,5-dimethyl-6,7,9,10-tetrahydro-1H-12,14-(ethanediylidene)dipyrrolo[3,2-i:3′,4′-l][1,4,7]dioxazacyclopentadecine-4,16(5H,15H)-dione]	–
62 % Ctrl	57 % Ctrl	59 % Ctrl	3.9 % Ctrl	5.1 % Ctrl	73 % Ctrl	Cc1cc2c([nH]1)/C=C1\C(=O)Nc3cc(Cl)c(cc31)OCCO[C@@H](C(=O)NC1CCNCC1)CN(C)C2=O [Ex. 134, [7R,16a(17)Z]-19-chloro-2,5-dimethyl-4,16-dioxo-N-(piperidin-4-yl)-4,5,6,7,9,10,15,16-octahydro-1H-12,14-(ethaneidylidene)dipyrrolo[3,2-i:3′,4′-l][1,4,7]dioxazacyclopentadecine-7-carboxamide]	–
